# Results: patent US7449447B2, “Peptidomimetic NS3-serine protease inhibitors of hepatitis C virus” (priority 2003, dated 2008)
# Molecular target: T1, HCV NS3/NS4a serine protease (Hepatitis C virus genotype 1b, UniProt P26663)
# T1 construct: amino terminus of the NS3 protease domain (amino acids 3-181) with a tetrapeptide linker; made in house; host or cells: E. coli
# Assay: Spectrophotometric assay for HCV protease inhibitory activity (chromogenic ester substrates)
# Assay type: biochemical, hepatitis C virus (strain 1b)
# Conditions: Ki Rating, Table 2; single chain NS4A21-32-GSGS-NS3 3-181 protease, 30° C., pH 6.5
# Outline: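 Single-chain NS4A(21-32)-GSGS-NS3(3-181) protease (genotype 1b) from E. coli was used at 1.3 nM in 25 mM MOPS pH 6.5 with 300 mM NaCl, 30 °C and 4% DMSO. Chromogenic ester substrate cleavage was followed as PAP release at 370 nm over 60 min. Ki was derived from vo/vi versus [I] plots assuming competitive inhibition.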
# T1 sequence (P26663 1013-1207, looked up, natural form): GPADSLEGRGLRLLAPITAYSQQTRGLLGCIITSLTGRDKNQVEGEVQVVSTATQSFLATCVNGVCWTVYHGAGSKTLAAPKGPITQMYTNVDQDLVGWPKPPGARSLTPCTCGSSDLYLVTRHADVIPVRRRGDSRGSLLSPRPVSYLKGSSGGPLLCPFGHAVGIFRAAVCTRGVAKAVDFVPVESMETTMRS
row,SMILES,Ki
1,COC(=O)c1ccc(CCNC(=O)[C@H](CC(F)F)NC(=O)[C@@H]2[C@H]3CC(C)(C)O[C@H]3CN2C(=O)[C@@H](NC(=O)OCc2ccccc2)C2CCCCC2)cc1 [Example 173],> 500 nM

# Same assay, conditions: Ki, Table 1; single chain NS4A21-32-GSGS-NS3 3-181 protease, 30° C., pH 6.5
row,SMILES,Ki
1,CC(C)[C@H](NC(=O)N[C@H](C(=O)N1C[C@H]2[C@@H]([C@H]1C(=O)N[C@@H](CC(F)F)C(=O)NCCc1ccc(C(=O)O)cc1)C2(C)C)C(C)(C)C)C(=O)O [Example 113],90 nM

# Same assay, conditions: Ki, Table 3; rating; single chain NS4A21-32-GSGS-NS3 3-181 protease, 30° C., pH 6.5
row,SMILES,Ki
1,CN(C[C@@H](NC(=O)N[C@H](C(=O)N1C[C@H]2[C@@H]([C@H]1C(=O)N[C@@H](CC(F)F)C(=O)NCCC(c1ccccc1)c1ccccc1)C2(C)C)C(C)(C)C)C(C)(C)C)S(C)(=O)=O [Example 229],> 500 nM
2,CCCOc1ccc(CCNC(=O)[C@H](CC(F)F)NC(=O)[C@@H]2[C@@H]3[C@H](CN2C(=O)[C@@H](NC(=O)N[C@H](CN(C)S(C)(=O)=O)C(C)(C)C)C(C)(C)C)C3(C)C)cc1Cl [Example 299],< 100 nM
3,CN(C[C@@H](NC(=O)N[C@H](C(=O)N1C[C@H]2[C@@H]([C@H]1C(=O)N[C@@H](CC(F)F)C(=O)NCCc1c(F)cccc1Cl)C2(C)C)C(C)(C)C)C(C)(C)C)S(C)(=O)=O [Example 275],< 100 nM
4,CN(C[C@@H](NC(=O)N[C@H](C(=O)N1C[C@H]2[C@@H]([C@H]1C(=O)N[C@@H](CC(F)F)C(=O)NCCc1ccc(Cl)cc1)C2(C)C)C(C)(C)C)C(C)(C)C)S(C)(=O)=O [Example 250],< 100 nM
5,CN(C[C@@H](NC(=O)N[C@H](C(=O)N1C[C@H]2[C@@H]([C@H]1C(=O)N[C@@H](CC(F)F)C(=O)NCCc1ccc(C(C)(C)C)cc1)C2(C)C)C(C)(C)C)C(C)(C)C)S(C)(=O)=O [Example 276],< 100 nM
6,CN(C[C@@H](NC(=O)N[C@H](C(=O)N1C[C@H]2[C@@H]([C@H]1C(=O)N[C@@H](CC(F)F)C(=O)NCc1cccs1)C2(C)C)C(C)(C)C)C(C)(C)C)S(C)(=O)=O [Example 212],> 500 nM
7,Cc1cccc(CCNC(=O)[C@H](CC(F)F)NC(=O)[C@@H]2[C@@H]3[C@H](CN2C(=O)[C@@H](NC(=O)N[C@H](CN(C)S(C)(=O)=O)C(C)(C)C)C(C)(C)C)C3(C)C)c1 [Example 260],< 100 nM
8,CCOc1ccccc1CCNC(=O)[C@H](CC(F)F)NC(=O)[C@@H]1[C@@H]2[C@H](CN1C(=O)[C@@H](NC(=O)N[C@H](CN(C)S(C)(=O)=O)C(C)(C)C)C(C)(C)C)C2(C)C [Example 273],< 100 nM
9,Cc1ccc(CCNC(=O)[C@H](CC(F)F)NC(=O)[C@@H]2[C@@H]3[C@H](CN2C(=O)[C@@H](NC(=O)N[C@H](CN(C)S(C)(=O)=O)C(C)(C)C)C(C)(C)C)C3(C)C)cc1 [Example 261],< 100 nM
10,CN(C[C@@H](NC(=O)N[C@H](C(=O)N1C[C@H]2[C@@H]([C@H]1C(=O)N[C@@H](CC(F)F)C(=O)NCCc1c[nH]c3ccccc13)C2(C)C)C(C)(C)C)C(C)(C)C)S(C)(=O)=O [Example 252],< 100 nM
